Data reported in patent US8586620B2, “Substituted indole compounds having NOS inhibitory activity” (NeurAxon, Inc., priority 2005, dated 2013).
Read-outs that look alike come from different tables or passages of the source.

How the values were obtained:
[1] = molecular target: human inducible NOS (iNOS) (Homo sapiens (Human), UniProt P35228); experiment: Human iNOS enzyme assay, radiometric; assay type: biochemical
Excerpt: Standard deviations were 10% or less.

[2] = molecular target: human endothelial constitutive NOS (eNOS) (Homo sapiens (Human), UniProt P29474); experiment: Human eNOS enzyme assay, radiometric;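 note: recombinant human eNOS expressed in baculovirus-infected Sf9 cells, activity read as [3H]L-arginine turned into [3H]L-citrulline, the product isolated on ion-exchange resin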
Protocol: (§1) In a radiometric method, NO synthase activity was determined by measuring the conversion of [^3H]L-arginine to [^3H]L-citrulline.
(§2) The total volume of the reaction mixture was 150 μL in every well. […] The reaction was stopped by adding 20 μL of ice-cold buffer containing 100 mM HEPES, 3 mM EGTA, 3 mM EDTA, pH=5.5. [^3H]L-citrulline was separated by DOWEX (ion-exchange resin DOWEX 50 W X 8-400, SIGMA) and the DOWEX was removed by spinning at 12,000 g for 10 min in the centrifuge. […] All assays were performed at least in duplicate. Standard deviations were 10% or less.

[3] = molecular target: human neuronal constitutive NOS (nNOS) (Homo sapiens (Human), UniProt P29475); experiment: Human nNOS enzyme assay, radiometric [3H]L-arginine to [3H]L-citrulline;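 note: recombinant human nNOS expressed in baculovirus-infected Sf9 cells, enzyme activity measured radiometrically as turnover of [3H]L-arginine into [3H]L-citrulline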
Protocol: as §1, §2

[4] = Table I, human NOS, dihydrochloride or monohydrochloride salts, read-out: iNOSh
[5] = read-out: eNOSh, Table I, human NOS, dihydrochloride or monohydrochloride salts
[6] = read-out: nNOSh, Table I, human NOS, dihydrochloride or monohydrochloride salts
[7] = read-out: eNOSh, Table II, human NOS, dihydrochloride or monohydrochloride salts
[8] = read-out: nNOSh, Table II, human NOS, dihydrochloride or monohydrochloride salts

SMILES | IC50 [2, 5] [µM] | e/n ([3]; Table I, ratio eNOSh/nNOSh) | IC50 [3, 6] [µM] | e/n ([3]; Table II, ratio eNOSh/nNOSh) | IC50 [2, 7] [µM] | IC50 [3, 8] [µM] | other results
N=C(Nc1ccc2ccn(CCN3CCCCC3)c2c1)c1cccs1 [Compound 37] | – | – | – | – | – | – | IC50 ([1]; Table 2b, read-out: Human iNOS): 21 µM; IC50 ([2]; read-out: Human eNOS, Table 2b): 3.8 µM; IC50 ([3]; read-out: Human nNOS, Table 2b): 0.49 µM
CN1CCC(c2c[nH]c3ccc(NC(=N)c4cccs4)cc23)CC1 [Compound 43, N-(3-(1-methylpiperidin-4-yl)-1H-indol-5-yl)thiophene-2-carboximidamide] | 32.6 | 17 | 1.88 | – | – | – | IC50 [1, 4]: 58 µM
CN1CC=C(c2c[nH]c3ccc(NC(=N)c4ccco4)cc23)CC1 [Compound 46, N-(3-(1-methyl-1,2,3,6-tetrahydropyridin-4-yl)-1H-indol-5-yl)furan-2-carboximidamide] | 54 | 31 | 1.78 | – | – | – | IC50 [1, 4]: 58 µM
CN1CCC(c2c[nH]c3ccc(NC(=N)c4ccco4)cc23)CC1 [Compound 47, N-(3-(1-methylpiperidin-4-yl)-1H-indol-5-yl)furan-2-carboximidamide] | 97.4 | – | 2.24 | – | – | – | IC50 [1, 4]: 55 µM
CN1CC=C(c2c[nH]c3ccc(CNC(=N)c4cccs4)cc23)CC1 [Compound 51, N-((3-(1-methyl-1,2,3,6-tetrahydropyridin-4-yl)-1H-indol-5-yl)methyl)thiophene-2-carboximidamide] | 49.7 | 42 | 1.19 | – | – | – | IC50 [1, 4]: 85 µM
CN(C)CCCc1c[nH]c2ccc(NC(=N)c3cccs3)cc12 [Compound 56, N-(3-(3-(dimethylamino)propyl)-1H-indol-5-yl)thiophene-2-carboximidamide] | 15.1 | – | 0.41 | – | – | – | IC50 [1, 4]: 5.6 µM
CN(C)CCc1c[nH]c2ccc(CNC(=N)c3cccs3)cc12 [Compound 59, N-((3-(2-(dimethylamino)ethyl)-1H-indol-5-yl)methyl)thiophene-2-carboximidamide] | 86.2 | – | – | – | – | – | e/n [3]: 7; IC50 ([3]; read-out: nNOSh): 12.8 µM
CCN1CCC(c2c[nH]c3ccc(NC(=N)c4cccs4)cc23)CC1 [Compound 62, N-(3-(1-ethylpiperidin-4-yl)-1H-indol-5-yl)thiophene-2-carboximidamide] | 57.3 | 24 | 2.43 | – | – | – | –
CN1CC=C(c2c[nH]c3ccc(NC(=S)NC(=O)c4ccccc4)cc23)CC1 [Compound 64, N-(3-(1-methyl-1,2,3,6-tetrahydropyridin-4-yl)-1H-indol-5-ylcarbamothioyl)benzamide] | 43 | 3 | 14 | – | – | – | –
CCSC(=N)Nc1ccc2[nH]cc(C3=CCN(C)CC3)c2c1 [Compound 67, Ethyl 3-(1-methyl-1,2,3,6-tetrahydropyridin-4-yl)-1H-indol-5-ylcarbamimidothioate] | 105 | 22 | 4.8 | – | – | – | –
N=C(Nc1ccc2[nH]cc(C3CCN(C(=O)c4ccccc4)CC3)c2c1)c1cccs1 [Compound 70, N-(3-(1-benzoylpiperidin-4-yl)-1H-indol-5-yl)thiophene-2-carboximidamide] | 50.9 | 9.06 | 5.62 | – | – | – | –
N=C(Nc1ccc2[nH]cc(-c3ccncc3)c2c1)c1cccs1 [Compound 73, N-(3-(pyridin-4-yl)-1H-indol-5-yl)thiophene-2-carboximidamide] | 43.4 | 19.7 | 2.2 | – | – | – | –
CSC(=N)Nc1ccc2[nH]cc(C3=CCN(C)CC3)c2c1 [Compound 75, Methyl 3-(1-methyl-1,2,3,6-tetrahydropyridin-4-yl)-1H-indol-5-ylcarbamimidothioate] | 36.1 | 16.0 | 2.25 | – | – | – | –
N=C(Nc1ccc2[nH]cc(C3CCN(C(=N)c4cccs4)CC3)c2c1)c1cccs1 [Compound 77, N-(3-(1-(imino(thiophen-2-yl)methyl)piperidin-4-yl)-1H-indol-5-yl)thiophene-2-carboximidamide] | 4.44 | 6.19 | 0.717 | – | – | – | –
N=C(Nc1ccc2[nH]cc(C3CCNCC3)c2c1)c1cccs1 [Compound 88, N-(3-(piperidin-4-yl)-1H-indol-5-yl)thiophene-2-carboximidamide] | 78.1 | 8.5 | 9.23 | – | – | – | –
CN1C2C=C(c3c[nH]c4ccc(NC(=N)c5cccs5)cc34)CC1CC2 (centres unmarked) [Compound 90, N-(3-(8-methyl-8-azabicyclo[3.2.1]oct-3-en-3-yl)-1H-indol-5-yl)thiophene-2-carboximidamide] | 67.9 | 20.3 | 3.35 | – | – | – | –
CNC1CC=C(c2c[nH]c3ccc(NC(=N)c4cccs4)cc23)CC1 (centres unmarked) [Compound 100, N-(3-(4-(methylamino)cyclohex-1-enyl)-1H-indol-5-yl)thiophene-2-carboximidamide] | 32 | 18.5 | 1.73 | – | – | – | –
CN1CCC[C@@H]1Cc1c[nH]c2ccc(NC(=N)c3ccco3)cc12 [Compound 106, (R)-N-(3-((1-Methylpyrrolidin-2-yl)methyl)-1H-indol-5-yl)furan-2-carboximidamide] | 27.1 | 13.0 | 2.08 | – | – | – | –
CN1CCC[C@H]1Cc1c[nH]c2ccc(NC(=N)c3ccco3)cc12 [Compound 107, (S)-N-(3-((1-methylpyrrolidin-2-yl)methyl)-1H-indol-5-yl)furan-2-carboximidamide] | 24.9 | 9.9 | 2.52 | – | – | – | –
CN(C)C1CC=C(c2c[nH]c3ccc(NC(=N)c4cccs4)cc23)CC1 (centres unmarked) [Compound 114, N-(3-(4-(dimethylamino)cyclohex-1-enyl)-1H-indol-5-yl)thiophene-2-carboximidamide] | 51.4 | 17.1 | 3 | – | – | – | –

SMILES | IC50 [2, 5] [µM] | e/n ([3]; Table I, ratio eNOSh/nNOSh) | IC50 [3, 6] [µM] | e/n ([3]; Table II, ratio eNOSh/nNOSh) | IC50 [2, 7] [µM] | IC50 [3, 8] [µM] | other results
N=C(Nc1ccc2ccn(CCc3ccccc3)c2c1)c1cccs1 [Compound 115] | – | – | – | >8.3 | – | – | IC50 ([2]; read-out: eNOSh): > 100 µM; IC50 ([3]; read-out: nNOSh): 12 µM
CN(C)C1CCC(c2c[nH]c3ccc(NC(=N)c4cccs4)cc23)CC1 (centres unmarked) [Compound 116, N-(3-(4-(dimethylamino)cyclohexyl)-1H-indol-5-yl)thiophene-2-carboximidamide] | 31.8 | 9.2 | – | – | – | – | –
N=C(Nc1ccc2[nH]cc(C3CN4CCC3CC4)c2c1)c1cccs1 (centres unmarked) [Compound 126, N-(3-(quinuclidin-3-yl)-1H-indol-5-yl)thiophene-2-carboximidamide] | 32.1 | 30.9 | 1.04 | – | – | – | –
N=C(Nc1ccc2[nH]cc(C3CN4CCC3CC4)c2c1)c1ccco1 (centres unmarked) [Compound 127, N-(3-(quinuclidin-3-yl)-1H-indol-5-yl)furan-2-carboximidamide] | 66 | 25.3 | 2.6 | – | – | – | –
CN1CC=C(c2c[nH]c3ccc(NC(=N)c4cccs4)cc23)C(F)C1 (centres unmarked) [Compound 134, N-(3-(3-fluoro-1-methyl-1,2,3,6-tetrahydropyridin-4-yl)-1H-indol-5-yl)thiophene-2-carboximidamide] | 143 | 51.4 | 2.78 | – | – | – | –
N=C(Nc1ccc2ccn(CCN3CCCCC3)c2c1)c1cccs1 [Compound 136] | – | – | – | 7.8 | 3.8 | 0.49 | –
CN1CCC[C@@H]1CCn1ccc2ccc(NC(=N)c3cccs3)cc21 [Compound 138] | – | – | – | 50 | 16 | 0.32 | –
CN1CCC[C@H]1CCn1ccc2ccc(NC(=N)c3cccs3)cc21 [Compound 139] | – | – | – | 120 | 24 | 0.2 | –
CN1CCCC(n2ccc3ccc(NC(=N)c4cccs4)cc32)CC1 (centres unmarked) [Compound 156] | – | – | – | 42.5 | 37 | 0.87 | –
CN(C)CCCn1ccc2ccc(NC(=N)c3cccs3)cc21 [Compound 157, N-(1-(3-(dimethylamino)propyl)-1H-indol-6-yl)thiophene-2-carboximidamide] | – | – | – | 41.1 | 28.3 | 0.7 | –
CCN(CC)CCCn1ccc2ccc(NC(=N)c3cccs3)cc21 [Compound 158] | – | – | – | 17.2 | 10.2 | 0.59 | –
CN(C)CCCn1ccc2ccc(NC(=N)c3cccs3)cc21 [Compound 160] | – | – | – | 2.11 | 5.77 | 2.73 | –
CNCCCn1ccc2ccc(NC(=N)c3cccs3)cc21 [Compound 161] | – | – | – | 5.57 | 9.91 | 1.78 | –
CN1CCCC1CCn1c(Cc2ccccc2)cc2ccc(NC(=N)c3cccs3)cc21 (centres unmarked) [Compound 162] | – | – | – | 14.3 | 33 | 2.3 | –
N=C(Nc1ccc2ccn(CCCCn3ccnc3)c2c1)c1cccs1 [Compound 167] | – | – | – | 3.74 | 4.56 | 1.22 | –
N=C(Nc1ccc2ccn(CCCCn3ccnc3)c2c1)c1cccs1 [Compound 168, N-(1-(4-(1H-imidazol-1-yl)butyl)-1H-indol-6-yl)thiophene-2-carboximidamide] | – | – | – | 9.6 | 2.53 | 0.26 | –
N=C(Nc1ccc2ccn(CCCN3CCOCC3)c2c1)c1ccsc1 [Compound 182] | – | – | – | 12.1 | 17 | 1.4 | –
N=C(Nc1ccc2ccn(CCCN3CCOCC3)c2c1)c1ccco1 [Compound 183] | – | – | – | 14.2 | 34 | 2.4 | –
N=C(Nc1ccc2ccn(CCCN3CCOCC3)c2c1)c1ccoc1 [Compound 184] | – | – | – | 19 | 19 | 1 | –
